Reference: patent publication US20260166057A1, “1,3,5(10),16-ESTRATETRAEN-3-YL ACETATE FOR USE IN IMPROVING PSYCHOMOTOR OR COGNITIVE PERFORMANCE” (priority 2023, published 2026)
Read-outs that look alike come from different tables or passages of the source.

Key:
[1] = at certain dosages; cited from earlier work
[2] = adjunctive therapy for acute depressive episodes, unipolar and bipolar; cited from earlier work
[3] = system: subjects with MDD or peripartum depression; test: ETA in mental fatigue associated with a depressive disorder (Example 7); type: in vivo, human; conditions: nasal as in Example 4
From the text: In subjects experiencing decreased psychomotor and/or cognitive performance in mental fatigue associated with a depressive disorder such as MDD or peripartum depression, a therapeutically effective amount of ETA is nasally administered to the olfactory epithelium as described in Example 4. Psychomotor and cognitive performance improve in this group of subjects.

[4] = system: isolated human nasal olfactory chemosensory neurons; test: Electrophysiology: inward currents in isolated chemosensory neurons; type: cell-based
[5] = Onset of effect after nasal administration; type: in vivo, human
From the text: Because of the rapid onset of effect of nasally administered ETA, and its safety, it is expected that ETA may be administered as needed once mental fatigue is sensed, for example immediately a mentally fatigued person senses sleepiness or a symptom of sleepiness (such as excessive yawning, closing the eyes, nodding of the head, etc.) or a decline in psychomotor or cognitive performance, to improve psychomotor and cognitive performance under those circumstances. It is also expected that ETA may be administered prophylactically to improve, or at least prevent the normal decline in, psychomotor and/or cognitive performance in persons who are, or are likely to become, mentally fatigued. Thus, for example, a firefighter, whose work schedule may require him or her to be available continuously for 72 hours even though he/she is allowed to sleep at night when not actually needed, might administer ETA to improve psychomotor and/or cognitive performance when awakened at night and called to fight a fire; or a pilot of an overnight flight, who flies the aircraft during an afternoon takeoff, rests during the overnight cruise portion of the flight, but then flies the aircraft again as it approaches and lands the next morning, might administer ETA to improve psychomotor and/or cognitive performance on rising from rest to perform the approach and landing.

[6] = system: nasal septal olfactory chemosensory epithelium; test: Electrophysiology: depolarization of chemosensory epithelium; set-up: species or system human
healthy male volunteers [7] = test: Time Estimation Test (cognitive performance) of the RTTET in mentally fatigued men; conditions: for Time Estimation test improvement: relative to placebo
subjects with MDD = test: ETA supplementation in MDD subjects already receiving escitalopram (Example 8); type: in vivo, human; conditions: ETA added to escitalopram
Description: In subjects experiencing decreased psychomotor and/or cognitive performance in mental fatigue associated with MDD and already receiving treatment with escitalopram, a therapeutically effective amount of ETA is intranasally administered as described in Example 4 as a supplemental or adjunctive treatment. ETA is administered separately from the antidepressant treatment and is given sequentially or proximate in time to situations requiring attention and concentration. […] Psychomotor and cognitive performance improve in this group of subjects.

[8] = system: subjects with major depressive disorder; test: Supplemental ETA with itruvone antidepressant therapy (Example 9); type: in vivo, human; conditions: ETA added to itruvone
From the text: Itruvone (INN, pregn-4-en-20-yn-3-one) is being developed for the treatment of MDD and is an investigational product not approved by the Food and Drug Administration. The preparation and experimental treatment of MDD with this compound are described, for example, in Monti, U.S. patent Ser. No. 10/322,138, “Treatment of Depressive Disorders,”. Both itruvone and ETA are believed to have a common mechanism of action in terms of activating olfactory chemosensory neurons in the nasal mucosa, and then activating certain hypothalamic circuits in the brain without brain or systemic uptake. In subjects receiving itruvone treatment for major depressive disorder, ETA is administered to the olfactory epithelium as described in Example 4. […] Cognitive function and psychomotor performance improve in this group of subjects. Because itruvone also is administered to the olfactory epithelium in the form of a spray or aerosol, ETA and itruvone may be administered separately, but proximate in time, or co-formulated for simultaneous intranasal administration.

[9] = system: subjects with mild cognitive impairment; test: ETA in mild cognitive impairment (Example 12); type: in vivo, human; conditions: intranasal as in Example 4
Description: In subjects experiencing decreased psychomotor and/or cognitive performance associated with mild cognitive impairment, a therapeutically effective amount of ETA is administered intranasally as described in Example 4. Psychomotor and cognitive performance improve in this group of subjects.

subjects with ADHD = test: ETA in ADHD (Example 11); type: in vivo, human; conditions: intranasal as in Example 4
Description: In subjects experiencing decreased psychomotor and/or cognitive performance associated with ADHD, a therapeutically effective amount of ETA is administered intranasally as described in Example 4. Psychomotor and cognitive performance improve in this group of subjects.

bone marrow = test: In vivo bone marrow micronucleus test
healthy male volunteers [10] = conditions: in vivo
rat estrogen receptor = test: In vitro agonist/antagonist activity on steroid receptors; type: biochemical
[11] = system: healthy volunteers of both sexes; test: Pilot human trials, nasal administration
rat progestin receptor = rat progestin receptor (Rattus norvegicus, UniProt Q63449); test: In vitro agonist/antagonist activity on steroid receptors; type: biochemical
Chain of rat progestin receptor (Q63449 whole entry): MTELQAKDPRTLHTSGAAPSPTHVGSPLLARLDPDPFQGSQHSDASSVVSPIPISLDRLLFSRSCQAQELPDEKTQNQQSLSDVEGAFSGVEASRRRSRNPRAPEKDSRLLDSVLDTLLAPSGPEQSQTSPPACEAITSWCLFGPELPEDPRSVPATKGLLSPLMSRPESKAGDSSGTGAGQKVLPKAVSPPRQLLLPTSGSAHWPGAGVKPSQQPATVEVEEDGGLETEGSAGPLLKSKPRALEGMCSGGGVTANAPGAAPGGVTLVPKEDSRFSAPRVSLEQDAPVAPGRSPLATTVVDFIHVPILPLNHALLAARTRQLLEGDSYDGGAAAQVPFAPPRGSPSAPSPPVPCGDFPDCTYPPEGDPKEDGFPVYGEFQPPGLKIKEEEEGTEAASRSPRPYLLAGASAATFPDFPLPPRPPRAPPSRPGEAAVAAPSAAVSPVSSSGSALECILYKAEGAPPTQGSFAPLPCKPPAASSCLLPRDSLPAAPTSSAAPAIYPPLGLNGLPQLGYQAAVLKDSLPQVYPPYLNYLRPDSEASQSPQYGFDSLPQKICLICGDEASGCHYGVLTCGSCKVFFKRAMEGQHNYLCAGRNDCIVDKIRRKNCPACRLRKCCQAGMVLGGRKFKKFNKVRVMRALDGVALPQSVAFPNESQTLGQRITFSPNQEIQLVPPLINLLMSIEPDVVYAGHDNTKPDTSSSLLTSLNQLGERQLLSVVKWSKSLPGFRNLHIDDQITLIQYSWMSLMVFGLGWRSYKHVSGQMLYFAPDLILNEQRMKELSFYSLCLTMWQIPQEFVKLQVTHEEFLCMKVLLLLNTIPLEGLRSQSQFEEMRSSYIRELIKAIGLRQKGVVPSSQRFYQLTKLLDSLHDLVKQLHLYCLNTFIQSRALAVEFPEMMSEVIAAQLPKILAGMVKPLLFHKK

[12] = Ames reverse mutation assay; type: cell-based
[13] = molecular target: rat glucocorticoid receptor (Rattus norvegicus, UniProt P06536); test: In vitro agonist/antagonist activity on steroid receptors; type: biochemical
Chain of rat glucocorticoid receptor (P06536 whole entry): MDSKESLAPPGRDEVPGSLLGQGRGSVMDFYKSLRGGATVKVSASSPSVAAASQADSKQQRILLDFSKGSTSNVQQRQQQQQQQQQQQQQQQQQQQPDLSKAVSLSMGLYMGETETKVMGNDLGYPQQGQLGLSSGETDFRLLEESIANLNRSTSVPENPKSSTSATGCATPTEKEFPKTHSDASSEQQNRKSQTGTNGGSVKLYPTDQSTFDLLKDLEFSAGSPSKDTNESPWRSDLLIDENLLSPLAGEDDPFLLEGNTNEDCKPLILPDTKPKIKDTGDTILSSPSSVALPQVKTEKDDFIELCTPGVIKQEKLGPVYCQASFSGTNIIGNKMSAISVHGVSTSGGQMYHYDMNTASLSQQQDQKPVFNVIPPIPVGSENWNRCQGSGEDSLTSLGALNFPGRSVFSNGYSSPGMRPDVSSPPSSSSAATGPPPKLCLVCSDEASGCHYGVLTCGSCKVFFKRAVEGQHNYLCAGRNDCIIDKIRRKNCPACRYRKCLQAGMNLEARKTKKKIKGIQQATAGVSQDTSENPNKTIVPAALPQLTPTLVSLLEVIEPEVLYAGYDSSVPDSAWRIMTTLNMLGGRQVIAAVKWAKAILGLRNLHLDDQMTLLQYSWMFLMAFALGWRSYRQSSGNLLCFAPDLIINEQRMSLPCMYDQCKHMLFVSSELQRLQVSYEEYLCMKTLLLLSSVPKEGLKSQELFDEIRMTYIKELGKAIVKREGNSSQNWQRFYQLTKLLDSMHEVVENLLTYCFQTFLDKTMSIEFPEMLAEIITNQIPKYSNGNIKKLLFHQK

healthy male volunteers [14] = test: Reaction Time Test (psychomotor performance) of the RTTET in mentally fatigued men; type: in vivo, human; conditions: for number of errors: relative to placebo, all three non-control tests; for variability in Reaction Time test: compared to caffeine and placebo; for effect on Reaction Time test compared with caffeine: midnight and 3 a.m. tests (subjects fatigued)
vomeronasal organ = conditions: cited from earlier work
[15] = system: subjects with peripartum depression; test: ETA in peripartum depression (Example 10); type: in vivo, human; conditions: as in Example 4
Description: In subjects experiencing decreased psychomotor and/or cognitive performance associated with peripartum depression, a therapeutically effective amount of ETA is administered to the olfactory epithelium as described in Example 4. ETA is administered separately from any other antidepressant therapy and is given sequentially or proximate in time to such other medications. Depressive scores reduce when the subjects are evaluated. Psychomotor and cognitive performance improve in this group of subjects.

male rats = test: Intravenous and intranasal administration to male rats; type: in vivo; conditions: 600 μg/Kg intravenous, 900 μg/Kg intranasal, 7-day period
rat androgen receptor = rat androgen receptor (Rattus norvegicus, UniProt P15207); test: In vitro agonist/antagonist activity on steroid receptors; type: biochemical
Chain of rat androgen receptor (P15207 whole entry S389L): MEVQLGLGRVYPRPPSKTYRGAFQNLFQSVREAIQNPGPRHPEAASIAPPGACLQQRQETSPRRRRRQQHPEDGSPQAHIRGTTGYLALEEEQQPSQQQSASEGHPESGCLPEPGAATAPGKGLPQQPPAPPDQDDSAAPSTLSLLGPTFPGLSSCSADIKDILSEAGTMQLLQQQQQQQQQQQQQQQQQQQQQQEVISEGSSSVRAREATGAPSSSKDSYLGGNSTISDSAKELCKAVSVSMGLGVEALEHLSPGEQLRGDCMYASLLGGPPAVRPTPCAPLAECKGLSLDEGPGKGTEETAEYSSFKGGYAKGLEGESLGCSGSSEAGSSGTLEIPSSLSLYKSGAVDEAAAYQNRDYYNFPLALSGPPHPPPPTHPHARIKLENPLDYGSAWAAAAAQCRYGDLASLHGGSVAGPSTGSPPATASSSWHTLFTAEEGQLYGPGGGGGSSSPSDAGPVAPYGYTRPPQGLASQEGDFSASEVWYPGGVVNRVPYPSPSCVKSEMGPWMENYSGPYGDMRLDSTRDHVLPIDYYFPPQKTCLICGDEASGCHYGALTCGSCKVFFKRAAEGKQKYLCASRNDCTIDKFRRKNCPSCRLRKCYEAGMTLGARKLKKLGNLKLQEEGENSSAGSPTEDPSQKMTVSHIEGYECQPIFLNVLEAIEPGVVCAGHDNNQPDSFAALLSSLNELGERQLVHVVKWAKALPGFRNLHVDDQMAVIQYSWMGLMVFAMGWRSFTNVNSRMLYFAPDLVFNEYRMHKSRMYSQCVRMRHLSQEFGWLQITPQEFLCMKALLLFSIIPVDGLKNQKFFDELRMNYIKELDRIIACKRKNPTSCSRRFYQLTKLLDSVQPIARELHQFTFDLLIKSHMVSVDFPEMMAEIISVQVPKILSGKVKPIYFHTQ

rats of both sexes = test: 7-day intravenous administration to rats of both sexes; type: in vivo
[16] = system: subjects with excessive daytime sleepiness; test: ETA in mental fatigue associated with excessive daytime sleepiness (Example 6); type: in vivo, human; conditions: intranasal as in Example 4
From the text: (§1) In subjects experiencing decreased psychomotor and/or cognitive performance in mental fatigue associated with excessive daytime sleepiness, a therapeutically effective amount of ETA is intranasally administered as described in Example 4. Psychomotor and cognitive performance improve in this group of subjects.

healthy male volunteers [17] = test: Adverse events in the efficacy study in mentally fatigued men; conditions: ETA nasal spray 1600 ng per administration, all subjects
[18] = system: subjects with shift work sleep disorder; test: ETA in mental fatigue associated with shift work sleep disorder (Example 5); type: in vivo, human; conditions: intranasal as in Example 4
From the text: as §1, with “shift work sleep disorder,” for “excessive daytime sleepiness,”

[19] = at night during extended wakefulness; cited from earlier work
mice = conditions: forced swim test in mice; imipramine, desipramine, fluoxetine, paroxetine, escitalopram, reboxetine; cited from earlier work
US adults = conditions: caffeine intake; cited from earlier work
depressed patients = conditions: cited from earlier work
[20] = both men and women, more pronounced in men

NC(=O)C[S+]([O-])C(c1ccccc1)c1ccccc1 (stereo not shown) [modafinil]
ADHD symptoms [1]: significantly improved | attention [1]: significantly improved | overall depression scores, remission rates and fatigue [2]: improves

CC(=O)Oc1ccc2c(c1)CC[C@@H]1[C@@H]2CC[C@]2(C)C=CC[C@@H]12 [ETA, 1,3,5(10),16-Estratetraen-3-yl acetate]
psychomotor and cognitive performance [3]: improve | amplitude of the response ([4]; dependence on concentration): increased depending on the concentration of the compound | inward currents in the membrane ([4]; isolated human neurons): induced inward currents | time to improvement in psychomotor and cognitive performance [5]: ≤ 15 min | time to initial physiological response [5]: within a minute | electrotonic depolarization [6]: electrotonic depolarization | Time Estimation test improvement (healthy male volunteers [7]; 3 a.m. test): significantly improved | Time Estimation test improvement relative to caffeine (healthy male volunteers [7]; midnight and 3 a.m. tests, p<0.01): significantly improved | Time Estimation test improvement (healthy male volunteers [7]; midnight test): significantly improved | depressive scores (subjects with MDD): reduce beyond that of the escitalopram alone | psychomotor and cognitive performance (subjects with MDD): improve | cognitive function and psychomotor performance [8]: improve | depressive scores [8]: reduce beyond that of itruvone alone | psychomotor and cognitive performance [9]: improve | psychomotor and cognitive performance (subjects with ADHD): improve | genotoxicity: mutagenic or clastogenic potential (bone marrow): no evidence of mutagenic or clastogenic potential | serious adverse events (healthy male volunteers [10]): no serious adverse events | agonist or antagonist activity (rat estrogen receptor): no agonist or antagonist activity | alpha frequency band of the electroencephalogram ([11]; intranasal administration): did not have significant effect | beta frequency band of the electroencephalogram ([11]; intranasal administration): did not have significant effect | body temperature ([11]; intranasal administration): did not have significant effect | duration of the QTc intervals of the electrocardiogram ([11]; intranasal administration): did not change | frequency of electrodermal activity events (skin conductance) ([11]; intranasal administration): significantly increased | tolerability ([11]; nasal administration, healthy volunteers): well tolerated | agonist or antagonist activity (rat progestin receptor): no agonist or antagonist activity | genotoxicity: mutagenic or clastogenic potential [12]: no evidence of mutagenic or clastogenic potential | agonist or antagonist activity [13]: no agonist or antagonist activity | number of errors (healthy male volunteers [14]; isochronous stimuli): significantly decrease | variability in Reaction Time test (healthy male volunteers [14]; isochronous): less variability | effect on Reaction Time test compared with caffeine (healthy male volunteers [14]; isochronous, p<0.001): significantly better than the effect of caffeine | number of errors (healthy male volunteers [14]; stochastic stimuli): significantly decrease | variability in Reaction Time test (healthy male volunteers [14]; stochastic): less variability | effect on Reaction Time test compared with caffeine (healthy male volunteers [14]; stochastic, p<0.0001): significantly better than the effect of caffeine | change in mass receptor potential (electrovomerogram) (vomeronasal organ; 60 pg dose to the vomeronasal organ, vs control (propylene glycol), men vs women): higher amplitude in men | skin temperature (vomeronasal organ; both men and women, more pronounced in men (FIGS. 6G and 6H)): increase | electrovomerogram (vomeronasal organ; [20]): increase | α-cortical activity (vomeronasal organ; [20]): increase | skin temperature (vomeronasal organ; men, vs control (FIG. 4C)): increase | integrated electrovomerogram (vomeronasal organ; men, vs control): increase | skin resistance (vomeronasal organ; men, vs control): decrease | electrodermal activity (vomeronasal organ; men): decrease | depressive scores [15]: reduce | psychomotor and cognitive performance [15]: improve | mortality, adverse symptoms, changes in behavior (male rats): no mortality or adverse symptoms, or changes in behavior | agonist or antagonist activity (rat androgen receptor): no agonist or antagonist activity | mortality, adverse symptoms, changes in behavior (rats of both sexes; 1 mg/day intravenously, rats of both sexes, 7-day period): no mortality or adverse symptoms, or changes in behavior | macroscopic or microscopic changes in organs (rats of both sexes; rat, in vivo, iv): no macroscopic or microscopic changes | psychomotor and cognitive performance [16]: improve | tolerability (healthy male volunteers [17]): well tolerated | psychomotor and cognitive performance [18]: improve

Cn1c(=O)c2c(ncn2C)n(C)c1=O [caffeine]
reaction time and cognitive performance [19]: improved | Time Estimation test improvement (healthy male volunteers [7]; midnight test): statistically significant | antidepressant-like activity of six typical antidepressants (mice): enhancement | depression symptoms measured by the PHQ-9 test (US adults): reduces depression symptoms | depressive scores (antidepressant action) (depressed patients; chronic supplementation, 60 mg, subjects taking escitalopram): produced rapid antidepressant action by reduction of depressive scores | cognitive performance (depressed patients; low doses, depressed patients): improved | number of errors (healthy male volunteers [14]; isochronous stimuli): significantly decrease | number of errors (healthy male volunteers [14]; stochastic stimuli): significantly decrease
